Test results taken from ChEMBL document CHEMBL1201862, “PubChem BioAssay data set” (2004).
The source made the active and inactive calls.

Columns and labels:
[1] = HEK-293T cell viability reduction – luminescence, B-cell screen hits, cytotoxicity control for BCR NF-kB inhibitor project, dose response (AID 489021); type: functional, cell-based;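 note: HEK-293T cells carrying an NF-kB luciferase reporter; cells exposed to compound for about 14 hours before viability readout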
[2] = non-specific 3'UTR reporter inhibition in Clone20-Shn3RL – cell-based, Renilla luciferase, cherry-picked, counter-screen for Shn3 inhibitor project, dose response (AID 624133); type: functional
[3] = tested on: Streptococcus sp. 'group A'; experiment: Streptococcus pyogenes SK(-)GAS viability under kanamycin – luminescence, BacTiterGlo, confirmation, counter-screen for streptokinase expression inhibitor project, dose response (AID 1900); type: functional, organism-based
INS1 = experiment: INS-1E survival protection against cytokine death – cell-based, luminescence, retest, dose response (AID 449756); type: functional; conditions: Rattus norvegicus;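 note: cell death triggered by IL-1 beta plus TNF-alpha plus IFN-gamma mixture; protective hits raise ATP signal compared with cytokine alone wells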
BJ [4] = experiment: BJ-TERT fibroblast viability loss – cell-based, RAS-independent, luminescence, dose response (AID 1933); type: functional; conditions: Homo sapiens
[5] = loss of viability in HepG2 cells – cell-based, CellTiter-Glo, cherry-picked, cytotoxicity control for Shn3 inhibitor project, dose response (AID 624134); type: functional
[6] = DRD fibroblast viability loss – cell-based, non-viral oncogenic, luminescence, dose response (AID 1934); type: functional; conditions: Homo sapiens
[7] = general mammalian cell viability loss – inhibitor set, cherry-pick, set 2, cytotoxicity control for miR-122 modulator project, dose response (AID 720697); type: functional, cell-based
[8] = reduced cellular PGC1a acetyl-lysine signal – cell-based, cherry-picked samples, dose response (AID 720514); type: functional;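 note: potency may reflect raised or lowered acetylation signal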
BJ [9] = experiment: BJ-TERT-LT-ST fibroblast viability loss – cell-based, RAS-independent, luminescence, dose response (AID 1935); type: functional; conditions: Homo sapiens;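 note: BJ fibroblasts immortalized with TERT plus LT and ST oncogenes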
[10] = general mammalian cell viability loss – activator set, cherry-pick, cytotoxicity control for miR-122 modulator project, dose response (AID 720690); type: functional, cell-based;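 note: HEK293T human cells scored for general mammalian cytotoxicity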
Streptococcus = experiment: GAS UMAA2166 growth inhibition – luminescence, BacTiterGlo, counter-screen for streptokinase expression inhibitor project, dose response (AID 1915); type: functional, organism-based;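 note: potency for reduction of bacterial viability or growth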
[11] = activation of miR-122 Renilla sensor silencing – cell-based, Huh7 psiCHECK-miR122, Renilla luciferase, cherry-picked, dose response (AID 651956); type: functional;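 note: huh7 hepatoma cells stably carrying a psiCHECK-2 miR-122 sensor plasmid; renilla luciferase signal reporting endogenous miR-122 activity after 48 h compound exposure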
[12] = reduction of Shn3 3'UTR-driven luciferase in osteoblasts – cell-based, Clone20 osteoblasts, firefly luciferase, cherry-picked, dose response (AID 624132); type: functional;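 note: firefly luciferase luminescence from reporter carrying the Shn3 3'UTR in osteoblasts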
BJ [13] = experiment: cells; type: functional, cell-based; conditions: Homo sapiens
Streptokinase A = molecular target: T1, Streptokinase A (Streptococcus pyogenes serotype M1, UniProt P10520); experiment: viability-normalized secreted streptokinase activity reduction – plasminogen activation absorbance, OD405, dose response (AID 1914); type: functional, Streptococcus pyogenes M1 GAS;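 note: secreted streptokinase activity via plasminogen activation per viability signal from cell pellet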
T1 sequence (P10520 whole entry): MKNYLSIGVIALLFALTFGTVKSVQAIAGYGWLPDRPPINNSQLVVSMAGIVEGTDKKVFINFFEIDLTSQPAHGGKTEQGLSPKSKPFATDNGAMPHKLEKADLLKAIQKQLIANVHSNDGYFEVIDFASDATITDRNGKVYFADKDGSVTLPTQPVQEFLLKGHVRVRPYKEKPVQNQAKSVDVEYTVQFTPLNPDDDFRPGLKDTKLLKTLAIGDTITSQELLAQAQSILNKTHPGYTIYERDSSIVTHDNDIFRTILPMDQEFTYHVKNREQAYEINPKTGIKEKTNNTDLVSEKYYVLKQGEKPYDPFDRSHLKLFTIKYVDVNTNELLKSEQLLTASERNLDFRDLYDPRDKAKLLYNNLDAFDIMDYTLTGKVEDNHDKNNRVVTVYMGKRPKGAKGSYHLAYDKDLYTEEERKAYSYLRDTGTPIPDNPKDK

Major prion protein = Major prion protein (Homo sapiens, UniProt P04156); type: functional, cell-based
[14] = molecular target: T2, Ubiquitin-conjugating enzyme E2 N (Homo sapiens, UniProt P61088); type: functional;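 note: Dose-response confirmation in a TR-FRET assay detecting UBC13-driven polyubiquitin chain formation, inhibition measured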
T2 sequence (P61088 whole entry): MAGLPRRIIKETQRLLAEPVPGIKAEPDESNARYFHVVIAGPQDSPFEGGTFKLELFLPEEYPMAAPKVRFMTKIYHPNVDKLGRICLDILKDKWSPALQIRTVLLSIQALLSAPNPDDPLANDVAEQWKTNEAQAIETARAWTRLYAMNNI

[15] = Dd2 malaria parasite growth inhibition potency – SYBR Green, dry powder samples, dose response (AID 1159566); type: functional, cell-based;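 note: potency for growth inhibition with lower SYBR green DNA signal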
[16] = growth inhibition of yeast DHODH-expressing 3D7 parasites – SYBR Green, dry powder samples, dose response (AID 1159570); type: functional, cell-based;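 note: parasite growth measured after 72 hours of compound exposure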
[17] = P. falciparum Dd2 growth inhibitors, dose response, SYBR Green, cherry-picked samples (AID 1159567); type: functional, cell-based
[18] = toxicity to human HepG2 hepatoma cells – cell-based, plate reader, dry powder samples, cytotoxicity control, dose response (AID 1159569); type: functional;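 note: inhibitor potency with signal falling toward the positive control level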
[19] = toxicity to human hepatoma HepG2 cells – cell-based, cherry-picked samples, cytotoxicity control, dose response (AID 1159577); type: functional
[20] = growth inhibition of PfATP4-mutant resistant parasites – NITD609-resistant line, SYBR Green, dry powder, dose response (AID 1159571); type: functional, cell-based;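 note: parasites synchronized at ring stage by sorbitol before testing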

For COc1cccc(N2CCN(c3[nH]cnc4c5cc(F)ccc5nc3-4)CC2C)c1 (configuration not stated), the IC50 [1] was 1.83 µM (active), the AC50 [2] was 0.49 µM (active) and the EC50 [3] was 8 µM (active). The AC50 (INS1) was 2.25 µM (active), the EC50 (BJ [4]) was 6.14 µM (inconclusive) and the AC50 [5] was 9.99 µM (active). For the same compound, the EC50 [6] was 6.44 µM (active), the AC50 [7] was 3.06 µM (active) and the AC50 [8] was 6.56 µM (active). For the same compound, the EC50 (BJ [9]) was 8.16 µM (active), the AC50 [10] was 3.35 µM (active) and the EC50 (Streptococcus) was 48.4 µM (active). The AC50 [11] was 6.99 µM (active), the AC50 [12] was 1.31 µM (active) and the EC50 (BJ [13]) was 9.04 µM (active). For the same compound, the EC50 (Streptokinase A) was 15.3 µM (active).
With Cc1ccc(NC(=O)CSc2ncnc3ccccc23)cc1S(=O)(=O)N1CCOCC1 the IC50 (Major prion protein) was 8.72 µM (active), the IC50 [14] was > 20 µM (inactive) and the IC50 (cells) was > 138 µM (inactive).
In the case of NC(=O)COC(=O)CC(NC(N)=O)c1ccc(Cl)cc1 (configuration not stated), the AC50 [8] is reported as 28.7 µM (active).
In the case of COc1cccc(NC(=O)N[C@H]2CC[C@H](CC(=O)Nc3ccc(-c4ccccc4)cc3)O[C@@H]2CO)c1, the AC50 [7] is reported as 0.479 µM (active) and the AC50 [10] is reported as 44.3 µM (active).
In the case of Cc1nc(N2[C@H](CO)[C@H](c3ccccc3)[C@H]2CNCC2CCCCC2)sc1C, the AC50 [15] is reported as 0.595 µM (active), the AC50 [16] is reported as 1.03 µM (active) and the AC50 [17] is reported as 1.13 µM (active). For the same compound, the AC50 [18] was 71.2 µM (active), the AC50 [19] was > 42 µM (inactive) and the AC50 [20] was 0.691 µM (active).
With C[C@H]1CN([C@@H](C)CO)S(=O)(=O)c2ccc(C#CC3CCCCC3)cc2O[C@H]1CN(C)C the AC50 [15] was 4.6 µM (active), the AC50 [16] was 8.69 µM (active) and the AC50 [18] was > 100 µM (inactive). The AC50 [20] was 2.42 µM (active).
